Measured values as given in US20090076029A1 (Palatin Technologies, Inc., priority 2007, published 2009).
Read-outs that look alike come from different tables or passages of the source.

Legend:
Assay type in all cases: binding, human
hMC4-R [1] = system: T1, hMC4-R; conditions: for Inhibition at 1 μM (AgRP) MC4-R: 1 μM compound
T1 construct: expressed in transfected cells; host or cells: HEK-293
Method in brief: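 Membranes from hMC4-R-expressing cells incubated 1 h at 37 °C with 0.2 nM [I^125]-AgRP (83-132) and increasing compound in 25 mM HEPES pH 7.5, 100 mM NaCl, 2 mM CaCl2, 2 mM MgCl2, 0.3 mM 1,10-phenanthroline, 0.5% BSA. Filtration, gamma counting; specific binding kept ≤10% of added counts.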

hMC4-R [2] = target: T1, hMC4-R; experiment: Competitive inhibition assay using [I125]-NDP-α-MSH, hMC4-R membranes
hMC3-R = target: T2, hMC3-R; experiment: Competitive inhibition assay using [I125]-NDP-α-MSH, hMC3-R membranes; conditions: read-out: Ki (nM) (NDP-α-MSH) MC3-R
T2 construct: expressed in transfected cells; host or cells: HEK-293
Method in brief: (§1)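 Membranes from HEK-293 cells expressing hMC3-R, hMC4-R or hMC5-R, or from mouse B-16 melanoma cells (MC1-R), with 0.2–0.4 nM [125I]-NDP-α-MSH in 50 mM HEPES pH 7.2 with Mg2+, Ca2+, K+. Test compound typically 1 μM; 90 min, room temperature; filtration, gamma counting. Percent inhibition vs specific binding (1 μM α-MSH), triplicate mean, negatives as 0%.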

hMC5-R = target: T3, hMC5-R; experiment: Competitive inhibition assay using [I125]-NDP-α-MSH, hMC5-R membranes; conditions: read-out: Ki (nM) (NDP-α-MSH) MC5-R
T3 construct: expressed in transfected cells; host or cells: HEK-293
Method in brief: as §1

[3] = MC4-R membranes, Table 1, read-out: Ki (nM) I125-AgRP
[4] = MC4-R membranes, Table 1, read-out: Ki (nM) I125-NPD-α-MSH
[5] = read-out: Ki (nM) (NDP-α-MSH) MC4-R

For `CC(C)C[C@@H]1CN(C(=O)[C@H](N)Cc2ccc(Cl)cc2Cl)[C@@H](CCCNC(=N)N)CN1CCc1ccc2ccccc2c1` [Example 4, N-{3-[1-[2(R)-Amino-3-(2,4-dichloro-phenyl)-propionyl]-5(R)-isobutyl-4-(2-naphthalen-2-yl-ethyl)-piperazin-2(S)-yl]-propyl}-guanidine], the “Inhibition at 1 μM (AgRP) MC4-R” value (hMC4-R [1]) was 100%, the Ki (hMC4-R [1]; [3]) was 6 nM and the Ki (hMC4-R [1]; read-out: Ki (nM) (AgRP) MC4-R) was 6 nM. The Ki (hMC4-R [2]; [4]) was 5 nM, the Ki (hMC4-R [2]; [5]) was 5 nM and the Ki (hMC3-R) was 87 nM. It also gave a Ki (hMC5-R) of 160 nM.

With `CC(=O)N[C@H](Cc1ccc(C)cc1C)C(=O)N1C[C@@H](C)N(CCc2ccc3ccccc3c2)C[C@@H]1CCCNC(=N)N` [Example 26, N-{1(R)-(2,4-Dimethyl-benzyl)-2-[2(S)-(3-guanidino-propyl)-5(R)-methyl-4-(2-naphthalen-2-yl-ethyl)-piperazin-1-yl]-2-oxo-ethyl}-acetamide] the “Inhibition at 1 μM (AgRP) MC4-R” value (hMC4-R [1]) was 100%, the Ki (hMC4-R [1]; [3]) was 3 nM and the Ki (hMC4-R [1]; read-out: Ki (nM) (AgRP) MC4-R) was 0.18 nM. For the same compound, the Ki (hMC4-R [2]; [4]) was 1 nM, the Ki (hMC4-R [2]; [5]) was 1 nM and the Ki (hMC3-R) was 74 nM. The Ki (hMC5-R) was 43 nM.

In the case of `Cc1ccc(C[C@@H](N)C(=O)N2C[C@@H](C)N(CCc3ccc4ccccc4c3)C[C@@H]2CCCNC(=N)N)c(C)c1` [Example 28, N-{3-[1-[2(R)-Amino-3-(2,4-dimethyl-phenyl)-propionyl]-5(R)-methyl-4-(2-naphthalen-2-yl-ethyl)-piperazin-2(S)-yl]-propyl}-guanidine], the “Inhibition at 1 μM (AgRP) MC4-R” value (hMC4-R [1]) is reported as 100%, the Ki (hMC4-R [1]; [3]) is reported as 3 nM and the Ki (hMC4-R [1]; read-out: Ki (nM) (AgRP) MC4-R) is reported as 3 nM. The “attenuation of binding of α-MSH and AgRP to MC4-R” value (hMC4-R [2]; both ligands (NDP-α-MSH and AgRP), summary) was “attenuate the binding of both α-MSH and AgRP to MC4-R”, the Ki (hMC3-R) was 167 nM and the Ki (hMC5-R) was 665 nM.
